Paper PMC4307180, “Overcoming myelosuppression due to synthetic lethal toxicity for FLT3-targeted acute myeloid leukemia therapy” (eLife, 2014)
“Also recorded” adds a separate entry of the source.

Legend:
K562 cells (Bcr-Abl) = assay: Cell proliferation/viability assay, K562; type: cell-based; settings: Homo sapiens, 48 hr
Protocol: (§1) Exponentially growing cells (5 × 10^3 cells per well) were plated in each well of a 96-well plate with 0.1 ml of RPMI 1640 + 10% (vol/vol) FCS containing the appropriate concentration of drug in triplicate, and cell viability was assessed after 48 hr as previously described ([Smith et al., 2012]). […] Log10-scale transformation of ratios, followed by conditional formatting using xcel spreadsheet software yielded the colored diagrams shown.

zebrafish embryos = assay: Zebrafish embryonic development / WT morphology; type: in vivo, Danio rerio (zebrafish); settings: 3 dpf, drug from 6 hpf
Protocol: Figure 4. […] (N–P) Three categories of mpo transcription (N, normal; O, intermediate; P, severe) were defined based on the WISH results (three experiments). […] Scale bar equals 500 μm. Blue arrows indicate the pericardial edema, green arrows indicate tail shortening and curving, and red arrows indicate the FLT3-ITD AML mpo+ myeloid cells expansion. […] For all experiments: Zebrafish embryos were collected and kept in standard E3 medium at 28°C. Different concentrations of either drug were added to the E3 medium from 6 hr post fertilization (hpf) to 3 days post fertilization (dpf). Embryos treated with DMSO or 10 μM drug from 6 to 30 hpf were collected for mpo whole mount in situ hybridization (WISH) analysis. […] plasmid DNA containing FLT3/ITD sequence was microinjected into one-cell stage embryos, and the uninjected embryos were used as control. FLT3/ITD-injected embryos were treated with DMSO or 10 μM drug from 6 to 30 hpf.
Wild-type (WT) zebrafish were maintained under standard conditions, and embryos were staged as described ([He et al., 2014]). The study was approved by the Committee of the Use of Live Animals for Teaching and Research in The University of Hong Kong.

Ba/F3 FLT3 ITD + Y693C = assay: Ba/F3 cell viability, FLT3 ITD + Y693C; type: cell-based; settings: Mus musculus, Ba/F3, 48 hr, ± SEM
Protocol: (§2) Stable Ba/F3 lines were generated by retroviral spinfection with the appropriate mutated plasmid as previously described ([Smith et al., 2012]).
as §1
(§3) Mutations isolated in the screen were engineered into pMSCVpuroFLT3–ITD by QuikChange mutagenesis (Stratagene, La Jolla, CA) as previously described ([Smith et al., 2012]).

Ba/F3 FLT3 ITD + D835H = assay: Ba/F3 cell viability, FLT3 ITD + D835H; type: cell-based; settings: Mus musculus, Ba/F3, 48 hr, ± SEM
Protocol: as §2, §1, §3

Ba/F3 FLT3 ITD + Y842C = assay: Ba/F3 cell viability, FLT3 ITD + Y842C; type: cell-based; settings: Mus musculus, Ba/F3, 48 hr, ± SEM
Protocol: as §2, §1, §3

Ba/F3 FLT3 ITD + D835F = assay: Ba/F3 cell viability, FLT3 ITD + D835F; type: cell-based; settings: Mus musculus, Ba/F3, 48 hr, ± SEM
Protocol: as §2, §1, §3

[1] = system: Molm14 cells (FLT3-ITD heterozygous); assay: Cell proliferation/viability assay, Molm14; type: cell-based; settings: Homo sapiens, MOLM-14, 48 hr, ± SEM
Protocol: as §1

HMC1.1 cells = assay: Caspase-3 activation (apoptosis), HMC1.1; type: cell-based, human; settings: 48 hr, up to 2,500 nM
Protocol: Cells were fixed with 4% (vol/vol) paraformaldehyde (Electron Microscopy Sciences) and permeabilized with 100% (vol/vol) methanol (Electron Microscopy Sciences, Hatfield, PA) followed by staining with a FITC-conjugated antiactive caspase-3 antibody (BD Pharmingen, San Jose, CA). Cells were run on a BD LSRFortessa cell analyzer, and data were analyzed using FlowJo (Tree Star Inc., Ashland, OR). Percentage of live cells was determined by negative staining for activated caspase-3 (see Figure 2B,C).

Ba/F3 FLT3 ITD + Y842H = assay: Ba/F3 cell viability, FLT3 ITD + Y842H; type: cell-based; settings: Mus musculus, Ba/F3, 48 hr, ± SEM
Protocol: as §2, §1, §3

Ba/F3 FLT3 ITD + D839G = assay: Ba/F3 cell viability, FLT3 ITD + D839G; type: cell-based; settings: Mus musculus, Ba/F3, 48 hr, ± SEM
Protocol: as §2, §1, §3

[2] = system: primary patient FLT3-ITD+ AML circulating blasts; assay: Colony-forming assay, primary patient FLT3-ITD+ AML blasts; type: cell-based, human
From the text: Primary AML blood samples and/or marrow aspirates were obtained on an IRB-approved protocol at the University of California, San Francisco. Informed consent was obtained in accordance with the Declaration of Helsinki. Mononuclear cells were purified by density centrifugation (Ficoll–Paque Plus, GE Healthsciences) before cryopreservation in 10% (vol/vol) DMSO or FCS (primary ITD and D835-mutant assays, Figure 3A–C) or immediate use in assays (Normal BM and SPB, Figure 3D–F). Normal BM and stimulated peripheral blood (SPB) samples were collected from donors at the UCSF oncology/hematology division. Cells were then suspended in MethoCult methylcellulose (Stem Cell Technologies, product no. H4435 Enriched, Canada) in 15-ml Falcon tubes, vigorously vortexed, bubbles settled over 10 min. Triplicates then plated via blunt-nosed syringe (1.1 ml each) into 3-cm dishes, avoiding bubble generation, and each dish placed in a larger 10-cm dish with water trough in an incubator (37°C, 5% CO2) for 13–14 days. Colonies were counted individually using traditional microscopy. CFU and BFU types reported separately (CFU-GEMM colonies counted as one of each).

Ba/F3 FLT3 ITD = assay: Ba/F3 cell viability, FLT3 ITD; type: cell-based; settings: Mus musculus, Ba/F3, 48 hr, ± SEM
Protocol: as §2, §1, §3

Ba/F3 FLT3 ITD + A848P = assay: Ba/F3 cell viability, FLT3 ITD + A848P; type: cell-based; settings: Mus musculus, Ba/F3, 48 hr, ± SEM
Protocol: as §2, §1, §3

KIT = KIT (Homo sapiens, UniProt P10721); assay: Reaction Biology Corp kinase assay at Km-ATP (Figure 1C), KIT
PDGFRβ = PDGFRβ (Homo sapiens, UniProt P09619); assay: Reaction Biology Corp kinase assay at Km-ATP (Figure 1C), PDGFRβ
Ba/F3 FLT3 ITD + D835V = assay: Ba/F3 cell viability, FLT3 ITD + D835V; type: cell-based; settings: Mus musculus, Ba/F3, 48 hr, ± SEM
Protocol: as §2, §1, §3

[3] = system: MV4;11 cells (FLT3-ITD homozygous); assay: Cell proliferation/viability assay, MV4;11; type: cell-based; settings: Homo sapiens, 48 hr, ± SEM
Protocol: as §1

KIT, sequence (P10721 26-976): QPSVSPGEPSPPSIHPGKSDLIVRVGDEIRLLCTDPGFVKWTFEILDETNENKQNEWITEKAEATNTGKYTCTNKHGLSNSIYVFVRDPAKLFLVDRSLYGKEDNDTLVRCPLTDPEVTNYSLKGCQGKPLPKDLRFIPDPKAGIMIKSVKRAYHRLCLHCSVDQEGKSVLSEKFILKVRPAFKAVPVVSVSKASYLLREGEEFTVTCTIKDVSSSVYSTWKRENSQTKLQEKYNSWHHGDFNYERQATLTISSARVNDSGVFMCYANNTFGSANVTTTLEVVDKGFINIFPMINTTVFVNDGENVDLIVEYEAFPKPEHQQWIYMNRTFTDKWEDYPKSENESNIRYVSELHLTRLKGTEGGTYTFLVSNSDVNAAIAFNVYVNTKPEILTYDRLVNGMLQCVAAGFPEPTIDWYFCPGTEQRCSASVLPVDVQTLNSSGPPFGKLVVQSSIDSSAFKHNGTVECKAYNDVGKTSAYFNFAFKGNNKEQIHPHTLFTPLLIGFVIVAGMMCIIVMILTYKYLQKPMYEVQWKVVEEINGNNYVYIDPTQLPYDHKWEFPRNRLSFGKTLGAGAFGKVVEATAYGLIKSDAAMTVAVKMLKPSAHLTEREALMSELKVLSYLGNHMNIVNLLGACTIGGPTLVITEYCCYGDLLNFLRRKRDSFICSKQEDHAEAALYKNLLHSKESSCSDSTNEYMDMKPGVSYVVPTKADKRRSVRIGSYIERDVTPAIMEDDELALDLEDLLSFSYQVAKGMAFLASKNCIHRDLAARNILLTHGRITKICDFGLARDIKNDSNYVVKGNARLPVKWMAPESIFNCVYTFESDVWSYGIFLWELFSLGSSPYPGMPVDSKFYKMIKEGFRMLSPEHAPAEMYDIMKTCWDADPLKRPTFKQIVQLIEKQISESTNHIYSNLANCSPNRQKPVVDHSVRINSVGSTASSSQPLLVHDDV
PDGFRβ, sequence (P09619 33-1106): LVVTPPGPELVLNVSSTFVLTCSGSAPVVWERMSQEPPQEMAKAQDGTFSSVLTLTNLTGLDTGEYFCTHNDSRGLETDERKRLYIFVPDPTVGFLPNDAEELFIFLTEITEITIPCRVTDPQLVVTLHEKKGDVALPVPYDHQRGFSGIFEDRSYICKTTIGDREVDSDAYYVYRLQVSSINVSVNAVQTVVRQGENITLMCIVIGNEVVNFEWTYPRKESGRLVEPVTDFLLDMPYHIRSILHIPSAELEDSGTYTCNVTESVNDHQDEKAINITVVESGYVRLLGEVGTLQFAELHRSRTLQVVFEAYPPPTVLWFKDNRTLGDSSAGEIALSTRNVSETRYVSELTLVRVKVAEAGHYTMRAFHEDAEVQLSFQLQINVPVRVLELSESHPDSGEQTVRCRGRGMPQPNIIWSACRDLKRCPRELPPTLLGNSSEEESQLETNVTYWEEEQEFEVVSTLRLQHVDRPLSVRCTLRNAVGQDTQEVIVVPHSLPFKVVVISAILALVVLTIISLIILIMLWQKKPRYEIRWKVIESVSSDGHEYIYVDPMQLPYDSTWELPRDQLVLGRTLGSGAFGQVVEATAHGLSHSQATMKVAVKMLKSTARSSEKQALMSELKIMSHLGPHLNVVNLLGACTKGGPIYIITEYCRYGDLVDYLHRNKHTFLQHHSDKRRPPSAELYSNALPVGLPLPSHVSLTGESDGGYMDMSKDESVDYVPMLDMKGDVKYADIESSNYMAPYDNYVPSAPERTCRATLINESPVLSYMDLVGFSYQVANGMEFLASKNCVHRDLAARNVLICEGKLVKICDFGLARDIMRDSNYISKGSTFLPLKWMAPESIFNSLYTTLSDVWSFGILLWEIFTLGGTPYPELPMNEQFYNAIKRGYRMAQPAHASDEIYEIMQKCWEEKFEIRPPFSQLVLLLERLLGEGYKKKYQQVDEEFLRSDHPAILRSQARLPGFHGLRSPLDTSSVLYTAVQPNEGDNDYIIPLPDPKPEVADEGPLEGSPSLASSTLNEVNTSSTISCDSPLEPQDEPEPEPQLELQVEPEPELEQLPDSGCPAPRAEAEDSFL

- IC50 (K562 cells (Bcr-Abl)): > 5000 nM
- IC50 (Ba/F3 FLT3 ITD + Y693C): 279 ± 36 nM
- IC50 (Ba/F3 FLT3 ITD + D835H): 48 ± 29 nM
- IC50 (Ba/F3 FLT3 ITD + Y842C): 48 ± 29 nM
- IC50 (Ba/F3 FLT3 ITD + D835F): 53 ± 36 nM
- IC50 [1]: 57 ± 8 nM
- IC50 (Ba/F3 FLT3 ITD + Y842H): 38 ± 24 nM
- IC50 (Ba/F3 FLT3 ITD + D839G): 80 ± 41 nM
- IC50 (Ba/F3 FLT3 ITD): 57 ± 45 nM
- IC50 (Ba/F3 FLT3 ITD + A848P): 53 ± 31 nM
- IC50 (KIT): 1020 nM
- IC50 (PDGFRβ): 80 ± 11 nM
- IC50 (Ba/F3 FLT3 ITD + D835V): 70 ± 58 nM
- IC50 [3]: 41 ± 6 nM
SMILES: CC1NC(=O)c2c1c1c3ccccc3n(CCCN)c1c1[nH]c3ccccc3c21 (stereo not drawn) [Star 27]
- effect on zebrafish embryonic development / morphology (zebrafish embryos): no change in heart and tail morphology; also recorded: no noticeable morphological defects up to 10 μM
- apoptosis/toxicity (caspase-3) in KIT-addicted HMC1.1 cells (HMC1.1 cells): very little up to 2,500 nM; also recorded: minimal apoptosis
- inhibition at 1 µM ([2]; Homo sapiens, at 1000 nM, read-out: inhibition of colony formation, FLT3-ITD+ blasts): > 80%
- raw colony numbers, FLT3-ITD+ blasts ([2]; at 1,000 nM, ca. 1,200 CFUs in DMSO plates): ca. 20
